Laboratory results taken from patent publication US10493159B2, “Protein transduction domains mimics” (University of Massachusetts, priority 2010, dated 2019).

Test: Transport activity, carboxyfluorescein release from vesicles, Hill analysis
Conditions: EYPC⊃CF vesicles, no counterion activator
Description: Transport activities for these novel PTDMs were determined using the standard biophysical assay well documented in the CPP literature. (Hennig, et al. 2008 J. Am. Chem. Soc. 130, 10338.) Specifically, 5(6)-carboxyfluorescein (CF) was used as a fluorescent probe in egg yolk phosphatidylcholine large unilamellar vesicles (EYPC-LUVs). The activity of these transporters increased with increasing polymer concentration at a constant vesicle concentration as detected by CF emission intensity, yielding plots of fluorescence intensity versus polymer concentration (FIG. 42, FIG. 43). […] (Sakai, et al. 2003 J. Am. Chem. Soc. 125, 14348; Sakai, et al. 2006 Soft Matter 2, 636; Sakai, et al. 2005 Chembiochem 6, 114; Hennig, et al. 2008 J. Am. Chem. Soc. 130, 10338; Nishihara, et al. 2005 Org. Biomol. Chem., 3, 1659; Perret, et al. 2005 J. Am. Chem. Soc. 127, 1114.) This analysis gave Ymax (maximal CF release relative to complete release by Triton X-100), EC50 (effective polymer concentration needed to reach Ymax/2), and the Hill coefficient n (see Table 2).
Preparation of EYPC-LUVs⊃CF. […]
Polymer Activity in EYPC-LUVs⊃CF. […] The time-dependent change in fluorescence intensity It (λex=492 nm, λem=517 nm) was monitored during the addition of polymer (20 μL stock solution in DMSO) at t=100 s, and addition of 40 μl 1.2% (aq.) triton X-100 at the end of every experiment (t=900 s) (FIG. 42). […]

## polyarginine
  transport activity: inactive
